The target in one assay is T1, JAK2 tyrosine kinase (Homo sapiens, UniProt O60674).
T1 construct: purchased Carnabioscience Co
The assay is described as follows: Test 1: inhibitory activity to JAK2 tyrosine kinase (ELISA). Format: biochemical. The following applies: 25 μM ATP in substrate solution, 30° C. for 1 hour, n=2. In short, it runs like this: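 This is an ELISA read at A450 (HRP anti-phosphotyrosine antibody, TMB) of biotin-peptide phosphorylation captured on streptavidin. Enzyme solution was 0.75 nM JAK2, and the substrate solution was 625 nM peptide with 25 μM ATP in Tris pH 7.5 buffer. The reaction ran 1 h at 30 °C with compounds in duplicate, and IC50 was fitted non-linearly.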
For orientation: ELISA stands for enzyme-linked immunosorbent assay.

The next assay deals with T2, JAK3 tyrosine kinase (Homo sapiens, UniProt P52333).
T2 construct: purchased Carnabioscience Co
T2 sequence (P52333 1-1124): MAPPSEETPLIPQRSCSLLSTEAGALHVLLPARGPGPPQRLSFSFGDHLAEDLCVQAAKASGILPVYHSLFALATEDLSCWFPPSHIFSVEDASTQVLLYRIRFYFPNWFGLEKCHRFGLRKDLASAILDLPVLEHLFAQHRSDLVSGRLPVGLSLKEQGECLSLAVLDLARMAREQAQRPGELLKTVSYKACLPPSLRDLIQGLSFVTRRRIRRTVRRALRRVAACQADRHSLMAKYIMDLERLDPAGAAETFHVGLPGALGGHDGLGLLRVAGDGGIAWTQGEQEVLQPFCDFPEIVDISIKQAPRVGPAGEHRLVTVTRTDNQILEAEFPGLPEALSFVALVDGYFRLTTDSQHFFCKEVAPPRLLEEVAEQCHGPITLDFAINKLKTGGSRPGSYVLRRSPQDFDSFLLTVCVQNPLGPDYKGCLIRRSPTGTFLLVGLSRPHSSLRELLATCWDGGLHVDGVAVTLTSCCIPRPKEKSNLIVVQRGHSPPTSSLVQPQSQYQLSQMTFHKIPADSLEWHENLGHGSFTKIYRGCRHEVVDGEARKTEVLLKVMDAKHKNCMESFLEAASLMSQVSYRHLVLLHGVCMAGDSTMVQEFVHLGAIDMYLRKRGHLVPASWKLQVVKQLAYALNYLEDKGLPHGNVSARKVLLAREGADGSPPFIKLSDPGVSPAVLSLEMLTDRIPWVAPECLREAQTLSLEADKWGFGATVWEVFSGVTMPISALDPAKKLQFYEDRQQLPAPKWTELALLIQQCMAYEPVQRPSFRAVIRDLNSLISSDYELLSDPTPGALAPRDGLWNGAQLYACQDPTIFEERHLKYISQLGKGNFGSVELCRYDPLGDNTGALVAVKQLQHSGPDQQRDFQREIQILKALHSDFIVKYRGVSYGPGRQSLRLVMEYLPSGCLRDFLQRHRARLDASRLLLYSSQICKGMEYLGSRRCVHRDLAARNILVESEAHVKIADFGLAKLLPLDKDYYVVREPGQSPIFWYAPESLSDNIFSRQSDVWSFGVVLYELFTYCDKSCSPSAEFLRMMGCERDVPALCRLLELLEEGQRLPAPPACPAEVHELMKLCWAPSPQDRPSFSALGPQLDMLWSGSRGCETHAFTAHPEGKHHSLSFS
The assay is described as follows: Test 1: inhibitory activity to JAK3 tyrosine kinase (ELISA). Format: biochemical. The following applies: 25 μM ATP in substrate solution, 30° C. for 1 hour, n=2. In short, it runs like this: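 ELISA of JAK3 kinase activity with absorbance read at 450 nm. Compounds were tested from DMSO dilution series at 100-fold the measurement concentrations (1000–0.01 μM), diluted up to 20 times in assay buffer, against a DMSO negative control. IC50 was estimated by non-linear regression of absorbance.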

The target of assay [1] is BaF3 cells into which JAK2 V617F gene was introduced (Homo sapiens, UniProt O60674, V617F, cells depend on it). The assay is described as follows: Test 2: growth inhibitory action against variant JAK2 expressed cells (MTT method). Format: cell-based. The following applies: incubation for 3 days, triplicate, read-out: concentration of the test material which inhibited 50% of the cell growth (IC50). The protocol: Test 2: Growth inhibitory action against variant JAK2 expressed cells
Chain of BaF3 cells into which JAK2 V617F gene was introduced (O60674 whole entry V617F): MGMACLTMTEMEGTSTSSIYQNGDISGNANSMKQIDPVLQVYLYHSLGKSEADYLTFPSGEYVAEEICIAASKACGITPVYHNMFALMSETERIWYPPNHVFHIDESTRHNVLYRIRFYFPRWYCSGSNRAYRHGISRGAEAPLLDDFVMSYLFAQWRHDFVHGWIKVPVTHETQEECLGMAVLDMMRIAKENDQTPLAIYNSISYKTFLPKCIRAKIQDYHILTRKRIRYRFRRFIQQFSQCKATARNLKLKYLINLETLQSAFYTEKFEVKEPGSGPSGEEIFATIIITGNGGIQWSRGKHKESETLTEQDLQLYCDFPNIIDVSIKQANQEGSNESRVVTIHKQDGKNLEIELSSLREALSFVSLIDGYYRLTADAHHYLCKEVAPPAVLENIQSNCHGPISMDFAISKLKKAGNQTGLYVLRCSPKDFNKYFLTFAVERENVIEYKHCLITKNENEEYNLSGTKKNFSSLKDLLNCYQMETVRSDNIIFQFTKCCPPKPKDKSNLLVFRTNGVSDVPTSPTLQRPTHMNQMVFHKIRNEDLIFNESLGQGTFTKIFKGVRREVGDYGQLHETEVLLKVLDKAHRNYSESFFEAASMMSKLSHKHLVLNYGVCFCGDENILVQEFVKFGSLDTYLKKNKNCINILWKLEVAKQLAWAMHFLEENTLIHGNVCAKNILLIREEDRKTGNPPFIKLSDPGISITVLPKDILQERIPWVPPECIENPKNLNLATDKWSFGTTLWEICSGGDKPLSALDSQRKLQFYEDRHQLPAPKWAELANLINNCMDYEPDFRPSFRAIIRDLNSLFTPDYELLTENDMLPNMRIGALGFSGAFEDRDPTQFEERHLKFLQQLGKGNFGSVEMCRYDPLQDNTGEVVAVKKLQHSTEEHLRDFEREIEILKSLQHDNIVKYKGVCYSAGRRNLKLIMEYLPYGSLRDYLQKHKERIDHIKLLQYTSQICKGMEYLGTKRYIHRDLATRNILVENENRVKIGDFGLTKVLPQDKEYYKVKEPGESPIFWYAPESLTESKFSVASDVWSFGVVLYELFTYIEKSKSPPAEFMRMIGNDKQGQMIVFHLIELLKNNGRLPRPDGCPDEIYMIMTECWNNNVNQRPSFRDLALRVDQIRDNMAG
BaF3 cells into which JAK2 V617F gene was introduced ([…]) were inoculated on a 96-well plate in an amount of 1×10^3 cells/well and allowed to stand in a CO2 incubator. Next day, the test material was added to the cells. The test material was serially diluted with DMSO to give 10 mM, 6 mM, 3 mM, 1 mM, 600 μM, 300 μM, 100 μM, 60 μM, 30 μM, or 10 μM solution. This was diluted 100 times with distilled water to give 100 μM, 60 μM, 30 μM, 10 μM, 6 μM, 3 μM, 1 μM, 600 nM, 300 nM, or 100 nM solution. This solution of test material was added to the well in an amount of 10 μl/well. As a negative control, 1% DMSO solution was added to the well in an amount of 10 μl/well. In the above operation, the final concentration of the test material became 10 μM, 6 μM, 3 μM, 1 μM, 600 nM, 300 nM, 100 nM, 60 nM, 30 nM, 10 nM, or 0 nM (0.1% DMSO solution). The addition of the test material solution to each well was made in triplicate.
After continuous incubation for 3 days, the viable count was determined by an MTT method. The MTT method was carried out as follows. First, 10 μl each of solution containing 5 mg/ml of MTT (3-(4,5-dimethylthiazol-2-yl)-2,5-diphenyltetrazolium bromide) was added to each well. The plate was allowed to stand in a CO2 incubator for 4 hours, and then 100 μl of 0.04N HCl/2-propanol solution was added to each well to stop the reaction. The generated MTT-formazan was dissolved well with a multi-channel pipette, and the absorbance at 595 nm was measured with reference to that at 655 nm (Thermo Co.; Multiskan FC). Non-linear regression analysis was made by means of a SAS system (SAS Institute Inc.), and the concentration (IC50) of the test material which inhibited 50% of the cell growth was estimated.
For orientation: Tetrazolium dyes change colour on reduction, which living cells bring about.

Consider 17 compounds from patent US8586591B2, “Aminopyrazine derivative and medicine” (Nippon Shinyaku Co., Ltd., priority 2009, dated 2013).

Broadly, the IC50 is the concentration at which inhibition is half-maximal. Read a low IC50 as greater potency.

Molecules are shown by their SMILES. Structures can show the parent of a compound that is named as a salt. Where two headings read alike, the source gives them in different places.

T1 sequence (O60674 whole entry): as the sequence (O60674 whole entry V617F) above, with F617V counted along it

As for `C[C@H](Nc1cc(C(=O)NCC2CC2)cc(Nc2cnccn2)n1)c1ccc(F)cc1` [Example 167, (S)—N-Cyclopropylmethyl-2-[1-(4-fluorophenyl)ethylamino]-6-(pyrazin-2-ylamino) isonicotinamide], the IC50 on JAK2 tyrosine kinase worked out at 1.6 nM; against JAK3 tyrosine kinase it was 350 nM. In assay [1], the GI50 was determined as 63 nM.

As to `C[C@H](Nc1nc(Nc2cnccn2)cc(N2CC(CO)C2)n1)c1ccc(F)cc1` [Example 228, (S)-(1-{2-[1-(4-Fluorophenyl)ethylamino]-6-(pyrazin-2-ylamino)pyrimidin-4-yl}azetidin-3-yl)methanol], the IC50 on JAK2 tyrosine kinase was determined as 1.1 nM; against JAK3 tyrosine kinase, 19 nM. The GI50 in assay [1] turned out to be 89 nM.

As for `CCCNC(=O)c1cc(Nc2cnccn2)nc(N[C@@H](C)c2ccc(F)cc2)c1` [Example 166, (S)-2-[1-(4-Fluorophenyl)ethylamino]-N-propyl-6-(pyrazin-2-ylamino)isonicotinamide], the IC50 on JAK2 tyrosine kinase was determined as 2.2 nM; against JAK3 tyrosine kinase it was 380 nM. The GI50 in assay [1] came to 64 nM.

Turning to `C[C@H](Nc1nc(Nc2cnccn2)cc(N2CC(N3CCCC3)C2)n1)c1ccc(F)cc1` [Example 222, (S)—N^2-[1-(4-Fluorophenyl)ethyl]-N^4-(pyrazin-2-yl)-6-[3-(pyrrolidin-1-yl)azetidin-1-yl]pyrimidine-2,4-diamine], the IC50 on JAK2 tyrosine kinase was determined as 0.75 nM; at JAK3 tyrosine kinase, 18 nM. Also, the GI50 in assay [1] amounted to 66 nM.

With `C[C@H](Nc1nc(Nc2cnccn2)cc(N2CCC(NS(C)(=O)=O)C2)n1)c1ccc(F)cc1` (stereo partly drawn) [Example 60, N-(1-{2-[(S)-1-(4-Fluorophenyl)ethylamino]-6-(pyrazin-2-ylamino)pyrimidin-4-yl}pyrrolidin-3-yl)methanesulfonamide hydrochloride], the IC50 came out at 0.71 nM on JAK2 tyrosine kinase and 28 nM on JAK3 tyrosine kinase. For the same compound, in assay [1], the GI50 amounted to 80 nM.

As to `C[C@H](Nc1nc(Nc2cnccn2)cc(N2CC(O)(C3CC3)C2)n1)c1ccc(F)cc1` [Example 200, (S)-3-Cyclopropyl-1-{2-[1-(4-fluorophenyl)ethylamino]-6-(pyrazin-2-ylamino)pyrimidin-4-yl}azetidin-3-ol hydrochloride], the IC50 against JAK2 tyrosine kinase came to 0.39 nM; at JAK3 tyrosine kinase, 26 nM. The GI50 in assay [1] amounted to 70 nM.

Consider `C[C@H](Nc1cc(-c2ccc(O)nc2)cc(Nc2cnccn2)n1)c1ccc(F)cc1` [Example 7, (S)-2′-[1-(4-Fluorophenyl)ethylamino]-6′-(pyrazin-2-ylamino)-3,4′-bipyridin-6-ol hydrochloride], for which the IC50 at JAK2 tyrosine kinase is 0.42 nM; against JAK3 tyrosine kinase, 39 nM. Moreover, the GI50 in assay [1] turned out to be 90 nM.

For `C[C@H](Nc1nc(Nc2cnccn2)cc(N2CCOCC2)n1)c1ccc(F)cc1` [Example 20, (S)—N^2-[1-(4-Fluorophenyl)ethyl]-6-morpholino-N^4-(pyrazin-2-yl)pyrimidine-2,4-diamine], the results for the IC50 on JAK2 tyrosine kinase and against JAK3 tyrosine kinase were 0.69 nM and 21 nM, respectively. Moreover, the GI50 in assay [1] was 55 nM.

With `C[C@H](Nc1cc(-c2cnn(C)c2)cc(Nc2cnccn2)n1)c1ccc(F)cc1` [Example 30, (S)—N^2-[1-(4-Fluorophenyl)ethyl]-4-(1-methyl-1H-pyrazol-4-yl)-N^6-(pyrazin-2-yl)pyridine-2,6-diamine maleate], the IC50 at JAK2 tyrosine kinase was found to be 1.5 nM; at JAK3 tyrosine kinase, 75 nM. In assay [1] (maleate), the GI50 came out at 60 nM.

In the case of `C[C@H](Nc1nc(Nc2cnccn2)cc(N2CCC3(CC2)COC(=O)O3)n1)c1ccc(F)cc1` [Example 112, (S)-8-{2-[1-(4-Fluorophenyl)ethylamino]-6-(pyrazin-2-ylamino)pyrimidin-4-yl}-1,3-dioxo-8-azaspiro[4.5]decan-2-one], the results for the IC50 against JAK2 tyrosine kinase and against JAK3 tyrosine kinase were 0.69 nM and 67 nM, respectively. The GI50 in assay [1] was found to be 64 nM.

Turning to `C[C@H](Nc1nc(Nc2cnccn2)cc(N2CCOCC2)n1)c1ccc(F)cc1` [Example 31, (S)—N^2-[1-(4-Fluorophenyl)ethyl]-6-morpholino-N^4-(pyrazin-2-yl)pyrimidine-2,4-diamine maleate], the values for the IC50 on JAK2 tyrosine kinase and on JAK3 tyrosine kinase were 0.41 nM and 26 nM, respectively. In assay [1] (maleate), the GI50 turned out to be 87 nM.

Take `C[C@H](Nc1nc(Nc2cnccn2)cc(N2CC(N3CCC(O)CC3)C2)n1)c1ccc(F)cc1` [Example 225]: the IC50 at JAK2 tyrosine kinase was found to be 0.69 nM; against JAK3 tyrosine kinase, 13 nM. Moreover, the GI50 in assay [1] amounted to 64 nM.

With `COc1ccc(-c2cc(Nc3cnccn3)nc(N[C@@H](C)c3ccc(F)cc3)c2)cc1` [Example 119, (S)—N^2-[1-(4-Fluorophenyl)ethyl]-4-(4-methoxyphenyl)-N^6-(pyrazin-2-yl)pyridine-2,6-diamine hydrochloride], the IC50 at JAK2 tyrosine kinase worked out at 28 nM; at JAK3 tyrosine kinase, 1600 nM.

For the compound `C[C@H](Nc1nc(Nc2cnccn2)cc(N2CCNC(C(N)=O)C2)n1)c1ccc(F)cc1` (stereo partly drawn) [Example 58, 4-{2-[(S)-1-(4-Fluorophenyl)ethylamino]-6-(pyrazin-2-ylamino)pyrimidin-4-yl}piperazin-2-carboxamide], the IC50 is 0.69 nM against JAK2 tyrosine kinase and 26 nM at JAK3 tyrosine kinase.

In the case of `COCCNC(=O)C1CN(c2cc(Nc3cnccn3)nc(N[C@@H](C)c3ccc(F)cc3)n2)C1` [Example 194, (S)-1-{2-[1-(4-Fluorophenyl)ethylamino]-6-(pyrazin-2-ylamino)pyrimidin-4-yl}-N-(2-methoxyethyl) azetidine-3-carboxamide], the IC50 at JAK2 tyrosine kinase was 0.79 nM; at JAK3 tyrosine kinase it was 84 nM.

In the case of `C[C@H](Nc1nc(Nc2cnccn2)cc(N2CC(C(=O)N3CCCC3)C2)n1)c1ccc(F)cc1` [Example 193, (S)-(1-{2-[1-(4-Fluorophenyl)ethylamino]-6-(pyrazin-2-ylamino)pyrimidin-4-yl}azetidin-3-yl)(pyrrolidin-1-yl)methanone], the IC50 on JAK2 tyrosine kinase worked out at 0.8 nM; on JAK3 tyrosine kinase it was 35 nM.

Take `Cc1cc(Nc2cnccn2)nc(N[C@@H](C)c2ccc(F)cc2)c1` [Example 121, (S)—N^2-[1-(4-Fluorophenyl)ethyl]-4-methyl-N^6-(pyrazin-2-yl)pyridine-2,6-diamine hydrochloride]: the IC50 at JAK2 tyrosine kinase amounted to 2.7 nM; against JAK3 tyrosine kinase it was 170 nM.
